Five compounds from US10017527B2, “KLK4 inhibitors” (Universiteit Antwerpen, priority 2014, dated 2018) can be followed below.

Read-outs that look alike come from different tables or passages of the source.

What all share (format): biochemical
Test [1] concerns the target T1, tPA (recombinant) (Homo sapiens, UniProt P00750).
T1 construct: purchased Nodia
Description: tPA inhibition, chromogenic substrate Biophen CS-05(88). An excerpt:
(§1) The IC50 values For KLK1, KLK2 and KLK8 were obtained in a similar way. For plasmin, tPA, thrombin, Fxa, HNE, Plasma kallikrein Chromogenic substrates were used (absorption: 405 nm). (KLK2, KLK4, KLK8 were supplied by Viktor Magdolen TUMunich (TUM)).

The target in test [2] is T2, Matriptase (Homo sapiens, UniProt Q9Y5Y6).
T2 sequence (Q9Y5Y6 1-855): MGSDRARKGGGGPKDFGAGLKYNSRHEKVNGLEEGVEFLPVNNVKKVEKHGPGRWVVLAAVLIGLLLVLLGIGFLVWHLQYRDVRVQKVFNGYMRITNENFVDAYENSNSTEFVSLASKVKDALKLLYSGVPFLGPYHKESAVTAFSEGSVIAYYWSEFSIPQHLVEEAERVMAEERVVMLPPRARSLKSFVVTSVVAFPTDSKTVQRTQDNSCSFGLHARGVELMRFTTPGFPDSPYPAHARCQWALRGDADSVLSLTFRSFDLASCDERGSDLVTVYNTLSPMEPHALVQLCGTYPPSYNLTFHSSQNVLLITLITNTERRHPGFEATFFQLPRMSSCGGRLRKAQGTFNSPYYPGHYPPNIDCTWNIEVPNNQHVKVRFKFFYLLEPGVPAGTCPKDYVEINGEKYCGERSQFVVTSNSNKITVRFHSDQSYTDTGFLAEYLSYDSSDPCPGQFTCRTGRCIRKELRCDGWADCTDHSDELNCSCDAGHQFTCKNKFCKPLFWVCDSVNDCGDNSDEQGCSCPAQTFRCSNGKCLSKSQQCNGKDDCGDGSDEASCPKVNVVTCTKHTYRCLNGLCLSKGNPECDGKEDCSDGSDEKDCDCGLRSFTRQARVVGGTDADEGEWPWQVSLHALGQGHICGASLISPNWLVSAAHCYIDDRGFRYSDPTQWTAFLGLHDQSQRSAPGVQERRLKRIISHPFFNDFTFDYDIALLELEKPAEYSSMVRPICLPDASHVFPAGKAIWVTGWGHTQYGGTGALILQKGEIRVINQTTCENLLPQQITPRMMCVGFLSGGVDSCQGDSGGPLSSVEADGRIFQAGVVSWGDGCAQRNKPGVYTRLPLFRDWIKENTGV
The experiment in a line: Matriptase inhibition.

The target of test [3] is T3, FXa (Homo sapiens, UniProt P00742).
T3 construct: purchased Nodia
T3 sequence (P00742 235-488 limits assumed): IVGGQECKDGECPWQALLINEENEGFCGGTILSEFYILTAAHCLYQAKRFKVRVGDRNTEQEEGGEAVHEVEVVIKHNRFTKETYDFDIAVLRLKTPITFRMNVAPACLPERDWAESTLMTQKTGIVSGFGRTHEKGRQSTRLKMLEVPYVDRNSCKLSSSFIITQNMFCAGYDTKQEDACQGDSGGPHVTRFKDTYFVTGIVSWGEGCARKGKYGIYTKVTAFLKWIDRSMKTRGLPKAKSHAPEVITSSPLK
T3 sequence (P00742 41-179 partner limits assumed): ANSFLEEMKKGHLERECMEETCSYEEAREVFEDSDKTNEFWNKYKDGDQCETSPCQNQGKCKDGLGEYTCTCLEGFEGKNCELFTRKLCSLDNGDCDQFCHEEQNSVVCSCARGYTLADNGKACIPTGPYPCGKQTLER
Description: FXa inhibition, chromogenic substrate Biophen CS-11(32).
Excerpt: as §1

Test [4] deals with T4, Thrombine (human plasma) (Homo sapiens, UniProt P00734).
T4 construct: purchased Sigma-Aldrich; host or cells: human plasma
Description: Thrombin inhibition, chromogenic substrate Biophen CS-21(66).

The target of test [5] is T5, PlasmaKLK (human plasma) (Homo sapiens, UniProt P03952).
T5 construct: purchased Sigma-Aldrich; host or cells: human plasma
T5 sequence (P03952 391-638 limits assumed): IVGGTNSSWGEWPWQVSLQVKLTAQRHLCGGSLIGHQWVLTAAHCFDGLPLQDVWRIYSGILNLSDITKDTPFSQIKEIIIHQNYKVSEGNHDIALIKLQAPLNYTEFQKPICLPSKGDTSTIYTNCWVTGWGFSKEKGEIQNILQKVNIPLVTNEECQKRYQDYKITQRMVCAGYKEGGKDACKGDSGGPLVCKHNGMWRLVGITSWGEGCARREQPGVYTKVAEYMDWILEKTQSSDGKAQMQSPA
T5 sequence (P03952 20-390 partner limits assumed): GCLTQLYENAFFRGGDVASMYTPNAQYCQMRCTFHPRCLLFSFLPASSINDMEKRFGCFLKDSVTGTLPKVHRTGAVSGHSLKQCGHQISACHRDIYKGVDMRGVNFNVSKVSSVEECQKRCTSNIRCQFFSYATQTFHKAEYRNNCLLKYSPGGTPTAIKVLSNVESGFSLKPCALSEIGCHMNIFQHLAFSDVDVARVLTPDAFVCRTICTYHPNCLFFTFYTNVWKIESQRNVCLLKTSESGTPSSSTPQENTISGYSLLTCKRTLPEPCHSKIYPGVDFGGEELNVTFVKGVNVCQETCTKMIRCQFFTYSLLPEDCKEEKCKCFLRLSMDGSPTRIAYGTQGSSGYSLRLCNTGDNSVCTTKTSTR
The experiment in a line: Plasma kallikrein inhibition, chromogenic substrate Biophen CS-31(02).
Excerpt: as §1

Test [6] deals with AcHE (Homo sapiens, UniProt P22303). The experiment in a line: AcHE inhibition.
AcHE, sequence (P22303 32-614): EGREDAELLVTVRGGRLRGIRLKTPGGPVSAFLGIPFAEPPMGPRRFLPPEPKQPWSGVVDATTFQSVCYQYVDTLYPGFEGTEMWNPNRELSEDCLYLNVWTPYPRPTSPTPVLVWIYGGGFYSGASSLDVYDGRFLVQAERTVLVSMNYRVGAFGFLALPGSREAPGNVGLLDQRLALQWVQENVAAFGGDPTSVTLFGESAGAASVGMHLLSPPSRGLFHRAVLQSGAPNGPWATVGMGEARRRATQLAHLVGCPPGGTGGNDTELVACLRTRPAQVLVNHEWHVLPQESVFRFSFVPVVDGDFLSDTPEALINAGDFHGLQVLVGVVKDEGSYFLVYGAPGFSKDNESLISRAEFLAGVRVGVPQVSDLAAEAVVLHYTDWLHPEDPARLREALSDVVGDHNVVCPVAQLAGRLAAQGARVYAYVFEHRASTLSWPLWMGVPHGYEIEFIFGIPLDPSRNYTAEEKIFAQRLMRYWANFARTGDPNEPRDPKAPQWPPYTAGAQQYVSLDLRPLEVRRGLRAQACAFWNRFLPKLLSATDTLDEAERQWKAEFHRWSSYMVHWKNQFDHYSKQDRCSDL
In test [7] the target is T6, KLK1 (human) (Homo sapiens, UniProt P06870).
T6 construct: purchased Prospec
T6 sequence (P06870 25-262): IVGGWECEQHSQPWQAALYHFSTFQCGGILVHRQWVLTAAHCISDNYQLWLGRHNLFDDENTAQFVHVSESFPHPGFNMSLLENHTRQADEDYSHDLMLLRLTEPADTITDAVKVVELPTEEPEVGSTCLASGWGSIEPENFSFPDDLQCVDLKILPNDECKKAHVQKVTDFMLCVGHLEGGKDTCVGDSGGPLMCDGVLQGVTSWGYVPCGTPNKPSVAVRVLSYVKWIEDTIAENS
Description: KLK1 inhibition, fluorogenic substrate H-Pro-Phe-Arg-AMC.
Excerpt: as §1

Test [8] addresses T7, Plasmine (human plasma) (Homo sapiens, UniProt P00747).
T7 construct: purchased Sigma-Aldrich; host or cells: human plasma
The experiment in a line: Plasmin inhibition, chromogenic substrate Biophen CS-21(66).
Excerpt: as §1

In test [9] the target is T8, uPA (recombinant) (Homo sapiens, UniProt P00749).
T8 construct: purchased Nodia
The experiment in a line: uPA inhibition, chromogenic substrate Biophen CS-61(44).

Test [10] deals with T9, KLK4 (Homo sapiens, UniProt Q9Y5K2).
T9 construct: purchased Viktor Magdolen (TUM), supplied by an academic laboratory
T9 sequence (Q9Y5K2 31-254): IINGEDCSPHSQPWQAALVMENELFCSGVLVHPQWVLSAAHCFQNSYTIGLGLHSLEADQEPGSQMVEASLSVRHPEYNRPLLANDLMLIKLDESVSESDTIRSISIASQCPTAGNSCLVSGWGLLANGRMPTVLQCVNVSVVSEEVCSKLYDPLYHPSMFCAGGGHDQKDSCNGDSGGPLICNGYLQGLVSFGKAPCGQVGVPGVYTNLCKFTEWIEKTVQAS
The experiment in a line: KLK4 enzymatic inhibition, fluorogenic substrate Boc-Val-Pro-Arg-AMC. How it is done:
The substrate was obtained form Bachem and the enzyme was provided by Viktor Magdolen (TUM). The reaction was monitored with an excitation wavelength of 355 nm and emission wavelength of 460 nm. The initial rate was determined between 2500000 and 4500000 mRFU/min. The reaction mixture contained 25 μM substrate and approximately 1 mU of enzyme in 145 μL of buffer in a final volume of […]. A 50 mM Tris buffer, pH 8.3, was used. From each inhibitor concentration, 5 μL was added, obtaining a final concentration from 0 to 250 μM in a total volume of 0.2 mL. Activity measurements were routinely performed in duplicate. […] IC50 values were obtained by fitting the data with the four-parameter logistics equation using Grafit 7.
[formula] where s=slope factor, v=rate, I0=inhibitor concentration, and range=the fitted uninhibited value minus the background. The equation assumes they falls with increasing x.
(§2) Inhibitor stock solutions were prepared in DMSO and stored at −20° C. Because the compounds described in this paper completely inactivate KLK4 following pseudo first-order kinetics, the IC50 value is inversely correlated with the second-order rate constant of inactivation. For a simple pseudo first-order inactivation process, the activity after incubation with inhibitor (vi) varies with the inhibitor concentration (i), as described in the following equation: vi=v0×e^−k t, where vo is the activity in absence of inhibitor, k is the second-order rate constant of inactivation, and t is the time. The inactivation rate constant was determined from the time course of inhibition.

Test [11] addresses T10, Neurtophil Elastase(human) (Homo sapiens, UniProt P08246).
T10 construct: purchased Enzo-life sciences
T10 sequence (P08246 30-267): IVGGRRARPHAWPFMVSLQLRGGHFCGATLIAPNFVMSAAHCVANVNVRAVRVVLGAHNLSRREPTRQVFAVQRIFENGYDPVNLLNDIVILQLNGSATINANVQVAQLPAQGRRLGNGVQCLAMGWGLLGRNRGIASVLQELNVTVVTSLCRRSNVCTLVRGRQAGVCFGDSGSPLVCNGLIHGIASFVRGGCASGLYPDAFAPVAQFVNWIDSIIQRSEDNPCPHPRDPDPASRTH
The experiment in a line: Neutrophil elastase inhibition, chromogenic substrate MeOSuc-Ala-Ala-Pro-Val-pNA.
Excerpt: as §1

Test [12] concerns the target T11, KLK8 (human) (Homo sapiens, UniProt O60259).
T11 construct: purchased Viktor Magdolen, TUMunich (TUM), supplied by an academic laboratory
T11 sequence (O60259 33-260): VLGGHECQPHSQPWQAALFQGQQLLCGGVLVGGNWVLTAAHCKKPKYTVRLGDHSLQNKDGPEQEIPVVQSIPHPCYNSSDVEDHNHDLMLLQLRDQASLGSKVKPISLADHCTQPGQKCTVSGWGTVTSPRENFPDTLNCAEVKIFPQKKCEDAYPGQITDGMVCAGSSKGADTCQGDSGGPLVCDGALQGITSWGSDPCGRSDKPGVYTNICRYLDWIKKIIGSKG
The experiment in a line: KLK8 inhibition, fluorogenic substrate Boc-Val-Pro-Arg-AMC.
Excerpt: as §1

For test [13], the target named is T12, KLK2 (human) (Homo sapiens, UniProt P20151).
T12 construct: purchased Viktor Magdolen, TUMunich (TUM), supplied by an academic laboratory
T12 sequence (P20151 25-261): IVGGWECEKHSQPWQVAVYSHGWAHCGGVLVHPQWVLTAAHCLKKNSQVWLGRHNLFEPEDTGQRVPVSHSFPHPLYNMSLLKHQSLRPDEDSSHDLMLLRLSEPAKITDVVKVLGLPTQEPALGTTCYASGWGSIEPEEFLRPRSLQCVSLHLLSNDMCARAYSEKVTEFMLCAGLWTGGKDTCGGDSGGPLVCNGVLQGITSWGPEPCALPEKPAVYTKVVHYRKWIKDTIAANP
The experiment in a line: KLK2 inhibition, fluorogenic substrate H-Pro-Phe-Arg-AMC.
Excerpt: as §1

The target of test [14] is T9, KLK4. Description: KLK4 inactivation kinetics from progress curves (kobs vs inhibitor concentration). How it is done:
as §2
The inhibitor was mixed with the substrate (250 μM final concentration), and the buffer solution with the enzyme was added at the time zero. […] The progress curves show the absorbance of aminomethylcoumarine produced as a function of time. Initially, no inhibitor is bound to the enzyme, and the tangent to the progress curve (dA/dt) is proportional to the concentration of the free enzyme. The concentration of free enzyme decreases over time due to the kinetics of inhibitor binding, as described above. Progress curves were recorded in pseudo first-order conditions ([I]0>>[E]0) and with less than 10% conversion of the substrate during the entire time course. In these conditions, dA/dt decreases exponentially with time. The progress curves were fitted with the integrated rate equation to yield a value for kobs, a pseudofirst-order rate constant At=v0[1−e^−k^obs^t]/kobs+A0 where At=absorbance at time t, A0=absorbance at time zero, and v0=uninhibited initial rate.
The apparent second-order rate constant (kapp) was calculated from the slope of the linear part of the plot of kobs versus the inhibitor concentration ([I]0). In case of competition between the inhibitor and the substrate, kapp is smaller than the “real” second order rate constant k discussed above because a certain fraction of the enzyme is present as an enzyme-substrate complex. kapp depends on the substrate concentration used in the experiment, as described by Lambeir et al. (Lambeir, Borloo et al. 1996).

[15] abbreviates: Tris buffer pH 8.3, read-out: IC50 tPA.
[16] abbreviates: Tris buffer pH 7.8, read-out: IC50 HNE.
Setting [17] is: Tris buffer pH 8.3, read-out: IC50 FXa.
Setting [18] is: Thrombin, Tris buffer pH 8.3, read-out: IC50 THR.
Setting [19] is: Plasma KLK, Tris buffer pH 7.8, read-out: IC50 pKLK.
Where [20] appears, read: Plasmin, Tris buffer pH 7.4, read-out: IC50 PLM.
Where [21] appears, read: Tris buffer pH 8.8, read-out: IC50 uPA.
Where [22] appears, read: 15 min pre-incubation at 37° C., Tris buffer pH 8.3, read-out: IC50 KLK4.

T1 sequence (P00750 36-562, species assumed): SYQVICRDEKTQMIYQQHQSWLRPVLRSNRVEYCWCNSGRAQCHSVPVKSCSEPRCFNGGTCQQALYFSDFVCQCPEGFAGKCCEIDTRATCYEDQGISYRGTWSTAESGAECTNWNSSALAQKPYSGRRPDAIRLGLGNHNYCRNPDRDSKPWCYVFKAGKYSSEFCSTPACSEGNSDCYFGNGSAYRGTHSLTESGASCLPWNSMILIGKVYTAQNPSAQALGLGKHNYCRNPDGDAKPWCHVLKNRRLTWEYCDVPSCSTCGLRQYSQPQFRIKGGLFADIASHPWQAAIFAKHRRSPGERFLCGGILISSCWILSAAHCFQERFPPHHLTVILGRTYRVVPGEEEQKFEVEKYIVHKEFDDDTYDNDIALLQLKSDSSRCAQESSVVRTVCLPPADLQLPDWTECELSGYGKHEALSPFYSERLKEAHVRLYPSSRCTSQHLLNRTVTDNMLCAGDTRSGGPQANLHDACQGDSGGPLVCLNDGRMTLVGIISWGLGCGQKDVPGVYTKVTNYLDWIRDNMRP
T7 sequence (P00747 581-810 limits assumed): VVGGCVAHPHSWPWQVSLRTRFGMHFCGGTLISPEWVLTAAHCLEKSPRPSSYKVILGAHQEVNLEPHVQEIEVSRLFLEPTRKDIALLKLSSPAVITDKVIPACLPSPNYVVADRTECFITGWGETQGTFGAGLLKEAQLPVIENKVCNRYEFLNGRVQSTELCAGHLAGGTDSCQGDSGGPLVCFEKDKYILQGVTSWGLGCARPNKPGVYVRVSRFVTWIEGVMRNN
T7 sequence (P00747 98-580 partner limits assumed): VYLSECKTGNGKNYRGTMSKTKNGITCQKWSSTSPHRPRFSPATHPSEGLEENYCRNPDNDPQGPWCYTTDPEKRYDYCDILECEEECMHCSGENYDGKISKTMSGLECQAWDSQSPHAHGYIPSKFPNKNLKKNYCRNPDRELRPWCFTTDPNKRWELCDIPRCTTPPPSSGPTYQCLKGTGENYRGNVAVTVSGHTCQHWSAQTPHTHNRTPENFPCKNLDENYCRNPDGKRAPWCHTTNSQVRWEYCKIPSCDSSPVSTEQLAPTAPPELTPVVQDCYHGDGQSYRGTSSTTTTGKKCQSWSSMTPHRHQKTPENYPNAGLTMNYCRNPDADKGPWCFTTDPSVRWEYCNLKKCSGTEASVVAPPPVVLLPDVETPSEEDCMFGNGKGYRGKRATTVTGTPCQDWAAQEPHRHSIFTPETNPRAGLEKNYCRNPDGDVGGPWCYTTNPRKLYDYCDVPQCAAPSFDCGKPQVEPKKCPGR

For orientation: IC50 means the point on the concentration scale where inhibition reaches its midpoint. With `N=C(N)Nc1ccc(C(NC(=O)OCCOCCOCc2cn(CCOCCOCCOCCNC(=O)CN3CCN(CC(=O)O)CCN(CC(=O)O)CCN(CC(=O)O)CC3)nn2)P(=O)(Oc2ccccc2)Oc2ccccc2)cc1` (stereo not shown) [Compound 83, 2,2′,2″-(10-(14-(4-(1-(diphenoxyphosphoryl)-1-(4-guanidinophenyl)-3-oxo-4,7,10-trioxa-2-azaundecan-11-yl)-1H-1,2,3-triazol-1-yl)-2-oxo-6,9,12-trioxa-3-azatetradecyl)-1,4,7,10-tetraazacyclododecane-1,4,7-triyl)triacetic acid], the IC50 in test [1] lay within 2.5 to 10 µM; in test [2] it was 2.5 to 10 µM; in test [3], 10 to 250 µM; in [4], 10 to 250 µM; in test [5], 10 to 250 µM; in test [6], 10 to 250 µM. For the same compound, the IC50 in test [7] was 2.5 to 10 µM; in test [8], 10 to 250 µM; in [9], 2.5 to 10 µM; in test [10], less than 0.1 µM.

Consider `CCCCCC(=O)NCCOC(=O)NC(c1ccc(NC(=N)N)cc1)P(=O)(Oc1ccccc1)Oc1ccccc1` (stereo not shown) [Compound 31, 2-hexanamidoethyl ((diphenoxyphosphoryl)(4-guanidinophenyl)methyl) carbamate 2,2,2-trifluoroacetaat], for which the IC50 in [1] is more than 250 µM; in test [2] it was 2.5 to 10 µM; in test [11], 10 to 250 µM; in test [3] it was 10 to 250 µM; in [4], more than 250 µM; in [5] it was 10 to 250 µM. Further, the IC50 was 10 to 250 µM in test [6]; 10 to 250 µM in test [7]; more than 250 µM in test [8]; 10 to 250 µM in [9]; 10 to 250 µM in test [12]; 0.1 to 1 µM in [10].

`COCCOCCOC(=O)NC(c1ccc(NC(=N)N)cc1)P(=O)(Oc1ccc(NC(C)=O)cc1)Oc1ccc(NC(C)=O)cc1` (stereo not shown) [Compound 114, 2-(2-methoxyethoxy)ethyl ((bis(4-acetamidophenoxy)phosphoryl)(4-guanidinophenyl)methyl) carbamate]: the IC50 in test [2] lay within 1 to 2.5 µM; in test [13] it was 0.1 to 1 µM; in test [7], 2.5 to 10 µM; in [8], 10 to 250 µM; in [9], 2.5 to 10 µM; in test [12], 1 to 2.5 µM. Further, the IC50 in [10] is less than 0.1 µM.

Take `CCN(CC)c1ccc2c(-c3ccccc3C(=O)N3CCN(C(=O)CCCCCCCn4cc(COCCOCCOC(=O)NC(c5ccc(NC(=N)N)cc5)P(=O)(Oc5ccccc5)Oc5ccccc5)nn4)CC3)c3ccc(=[N+](CC)CC)cc-3oc2c1` (stereo not shown) [Compound 133, N-(6-(diethylamino)-9-(2-(4-(8-(4-(1-(diphenoxyphosphoryl)-1-(4-guanidinophenyl)-3-oxo-4,7,10-trioxa-2-azaundecan-11-yl)-1H-1,2,3-triazol-1-yl)octanoyl)piperazine-1-carbonyl)phenyl)-3H-xanthen-3-ylidene)-N-ethylethanaminium]: the IC50 is more than 250 µM in test [1] (setting [15]); 2.5 to 10 µM in test [2] (Matriptase, read-out: IC50 MAT); 10 to 250 µM in test [11] (setting [16]); 2.5 to 10 µM in test [3] (setting [17]); 10 to 250 µM in [4] (setting [18]); 10 to 250 µM in test [5] (setting [19]). The IC50 in [8] (setting [20]) was 10 to 250 µM; in test [9] (setting [21]), 2.5 to 10 µM; in [10] (setting [22]) it was less than 0.1 µM.

In the case of “2-((1E,3E,5Z)-5-(1-(6-((2-(4-(1-(diphenoxyphosphoryl)-1-(4-guanidinophenyl)-3-oxo-4,7,10-trioxa-2-azaundecan-11-yl)-1H-1,2,3-triazol-1-yl)ethyl)amino)-6-oxohexyl)-3,3-dimethylindolin-2-ylidene)penta-1,3-dien-1-yl)-1,3,3-trimethyl-3H-indol-1-ium [Compound 134]”, the IC50 is more than 250 µM in [1] (setting [15]); 2.5 to 10 µM in test [2] (Matriptase, read-out: IC50 MAT); 10 to 250 µM in test [11] (setting [16]); 2.5 to 10 µM in test [3] (setting [17]); 10 to 250 µM in test [4] (setting [18]); 10 to 250 µM in [5] (setting [19]). The IC50 lay in the range of 10 to 250 µM in [6] (read-out: IC50 AcHE); 2.5 to 10 µM in [7] (Tris buffer pH 7.8, read-out: IC50 KLK1); 10 to 250 µM in test [8] (setting [20]); 2.5 to 10 µM in test [9] (setting [21]); 2.5 to 10 µM in test [12] (Tris buffer pH 8, read-out: IC50 KLK8); 0.1 to 1 µM in test [10] (setting [22]). Moreover, the “kapp KLK4” value in test [14] (apparent second-order rate constant, substrate 250 μM) was 2240 M⁻¹ s⁻¹. Also, the “Irreversible (KLK4)” value in test [14] (irreversible binding to KLK4, Yes/No) is recorded as “Yes/”.
